Experiment in all cases: Kinase profile (33P ATP filter binding)
Common to all, as to format: biochemical

One experiment deals with T1, SGK1 (Homo sapiens, UniProt O00141).
T1 sequence (O00141 1-431): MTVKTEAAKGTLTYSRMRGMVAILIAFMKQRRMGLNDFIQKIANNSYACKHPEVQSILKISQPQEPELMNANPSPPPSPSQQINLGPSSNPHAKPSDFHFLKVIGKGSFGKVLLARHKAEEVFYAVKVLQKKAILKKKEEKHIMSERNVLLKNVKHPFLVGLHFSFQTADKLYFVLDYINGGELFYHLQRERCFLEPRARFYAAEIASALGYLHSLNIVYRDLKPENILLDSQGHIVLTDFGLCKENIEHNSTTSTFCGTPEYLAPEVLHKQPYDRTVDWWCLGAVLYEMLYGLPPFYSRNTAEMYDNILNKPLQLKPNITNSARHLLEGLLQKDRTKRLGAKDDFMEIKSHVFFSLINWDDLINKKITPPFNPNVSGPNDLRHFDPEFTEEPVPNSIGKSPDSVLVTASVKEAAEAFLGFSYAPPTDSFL
The note with it: read-out: Remaining protein kinase activity.

For a further experiment, the target named is EPH-A2 (Homo sapiens, UniProt P29317). To be noted: read-out: Remaining protein kinase activity.
For the next experiment, the target named is TrkA (Homo sapiens, UniProt P04629). To be noted: read-out: Remaining protein kinase activity.
The next experiment deals with T2, ZAP70 (Homo sapiens, UniProt P43403).
T2 sequence (P43403 1-619): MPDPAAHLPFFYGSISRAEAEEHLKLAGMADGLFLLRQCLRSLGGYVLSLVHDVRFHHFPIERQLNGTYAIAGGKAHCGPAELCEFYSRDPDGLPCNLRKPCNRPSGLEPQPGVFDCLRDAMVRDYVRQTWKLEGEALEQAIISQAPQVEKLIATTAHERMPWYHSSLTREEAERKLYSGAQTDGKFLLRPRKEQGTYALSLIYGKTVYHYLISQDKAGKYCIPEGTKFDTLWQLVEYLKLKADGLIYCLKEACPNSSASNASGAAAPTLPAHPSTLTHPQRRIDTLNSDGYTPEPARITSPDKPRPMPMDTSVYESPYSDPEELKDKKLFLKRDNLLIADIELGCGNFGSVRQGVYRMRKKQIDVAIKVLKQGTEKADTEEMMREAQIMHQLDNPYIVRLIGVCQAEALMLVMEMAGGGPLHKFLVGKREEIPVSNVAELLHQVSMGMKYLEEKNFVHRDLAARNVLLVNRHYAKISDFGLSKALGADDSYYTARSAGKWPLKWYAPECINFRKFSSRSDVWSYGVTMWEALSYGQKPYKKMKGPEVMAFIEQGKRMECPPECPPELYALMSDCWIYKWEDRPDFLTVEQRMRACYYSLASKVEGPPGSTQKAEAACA
To be noted: read-out: Remaining protein kinase activity.

The next experiment has as its target CDK9-Cyclin T1 (Homo sapiens, UniProt P50750). The note with it: read-out: Remaining protein kinase activity.
A further experiment addresses CK1γ2 (Homo sapiens, UniProt P78368).
The target in a further experiment is JNK3 (Homo sapiens, UniProt P53779).
The target in the next experiment is CAMKKb (Homo sapiens, UniProt Q96RR4). The note with it: read-out: Remaining protein kinase activity.
The next experiment deals with CHK2 (Homo sapiens, UniProt O96017). The note with it: read-out: Remaining protein kinase activity.
The next experiment has as its target MINK1 (Homo sapiens, UniProt Q8N4C8). The note with it: read-out: Remaining protein kinase activity.
The target of another experiment is T3, PKCz (Homo sapiens, UniProt Q05513).
T3 sequence (Q05513 1-592): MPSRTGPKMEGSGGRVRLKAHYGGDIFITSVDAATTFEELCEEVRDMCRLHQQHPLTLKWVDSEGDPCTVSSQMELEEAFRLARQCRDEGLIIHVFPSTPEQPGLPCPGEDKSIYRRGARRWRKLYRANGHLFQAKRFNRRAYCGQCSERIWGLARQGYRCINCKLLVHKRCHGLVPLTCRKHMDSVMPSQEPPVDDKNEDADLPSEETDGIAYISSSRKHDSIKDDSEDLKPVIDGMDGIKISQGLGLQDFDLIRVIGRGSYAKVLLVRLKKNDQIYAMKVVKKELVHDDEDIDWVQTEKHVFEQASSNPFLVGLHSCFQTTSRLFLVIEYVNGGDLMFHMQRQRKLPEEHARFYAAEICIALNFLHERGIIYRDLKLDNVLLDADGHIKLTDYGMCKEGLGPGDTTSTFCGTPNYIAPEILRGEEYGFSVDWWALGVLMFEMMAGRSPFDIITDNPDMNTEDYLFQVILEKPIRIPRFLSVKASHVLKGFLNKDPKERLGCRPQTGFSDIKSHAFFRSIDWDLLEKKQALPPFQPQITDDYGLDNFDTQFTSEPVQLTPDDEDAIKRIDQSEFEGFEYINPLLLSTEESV
To be noted: read-out: Remaining protein kinase activity.

Each structure is given as a SMILES string. Where two headings read alike, the source gives them in different places.

The remaining activity is the signal under treatment as a percentage of the control signal.

Chain of CHK2 (O96017 whole entry): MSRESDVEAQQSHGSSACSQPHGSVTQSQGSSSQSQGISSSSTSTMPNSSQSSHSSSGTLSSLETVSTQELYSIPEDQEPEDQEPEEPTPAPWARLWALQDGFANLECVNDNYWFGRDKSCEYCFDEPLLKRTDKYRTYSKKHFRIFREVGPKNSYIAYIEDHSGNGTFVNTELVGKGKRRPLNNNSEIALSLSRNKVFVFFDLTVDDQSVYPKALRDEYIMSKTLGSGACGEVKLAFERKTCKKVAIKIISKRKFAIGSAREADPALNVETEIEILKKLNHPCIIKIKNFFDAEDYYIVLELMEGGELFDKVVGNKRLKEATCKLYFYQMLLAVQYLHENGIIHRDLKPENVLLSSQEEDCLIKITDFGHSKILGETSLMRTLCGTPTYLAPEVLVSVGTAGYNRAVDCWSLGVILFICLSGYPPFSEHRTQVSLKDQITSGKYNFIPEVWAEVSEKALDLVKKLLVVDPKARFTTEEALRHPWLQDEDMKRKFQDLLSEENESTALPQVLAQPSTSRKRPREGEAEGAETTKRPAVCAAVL
Chain of JNK3 (P53779 whole entry, species assumed): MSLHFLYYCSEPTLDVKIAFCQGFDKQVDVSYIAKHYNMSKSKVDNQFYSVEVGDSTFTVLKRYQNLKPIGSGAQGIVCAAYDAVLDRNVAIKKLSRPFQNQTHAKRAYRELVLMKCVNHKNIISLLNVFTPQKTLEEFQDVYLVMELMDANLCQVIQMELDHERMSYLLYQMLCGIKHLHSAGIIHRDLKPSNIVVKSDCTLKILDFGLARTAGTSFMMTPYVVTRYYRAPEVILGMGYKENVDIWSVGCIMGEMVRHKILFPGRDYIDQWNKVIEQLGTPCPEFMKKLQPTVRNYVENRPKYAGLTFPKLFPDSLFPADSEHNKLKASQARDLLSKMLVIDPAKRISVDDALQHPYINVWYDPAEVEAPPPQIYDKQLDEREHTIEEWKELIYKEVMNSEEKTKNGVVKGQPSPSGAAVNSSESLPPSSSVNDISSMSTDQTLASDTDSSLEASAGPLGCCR
Chain of EPH-A2 (P29317 24-976): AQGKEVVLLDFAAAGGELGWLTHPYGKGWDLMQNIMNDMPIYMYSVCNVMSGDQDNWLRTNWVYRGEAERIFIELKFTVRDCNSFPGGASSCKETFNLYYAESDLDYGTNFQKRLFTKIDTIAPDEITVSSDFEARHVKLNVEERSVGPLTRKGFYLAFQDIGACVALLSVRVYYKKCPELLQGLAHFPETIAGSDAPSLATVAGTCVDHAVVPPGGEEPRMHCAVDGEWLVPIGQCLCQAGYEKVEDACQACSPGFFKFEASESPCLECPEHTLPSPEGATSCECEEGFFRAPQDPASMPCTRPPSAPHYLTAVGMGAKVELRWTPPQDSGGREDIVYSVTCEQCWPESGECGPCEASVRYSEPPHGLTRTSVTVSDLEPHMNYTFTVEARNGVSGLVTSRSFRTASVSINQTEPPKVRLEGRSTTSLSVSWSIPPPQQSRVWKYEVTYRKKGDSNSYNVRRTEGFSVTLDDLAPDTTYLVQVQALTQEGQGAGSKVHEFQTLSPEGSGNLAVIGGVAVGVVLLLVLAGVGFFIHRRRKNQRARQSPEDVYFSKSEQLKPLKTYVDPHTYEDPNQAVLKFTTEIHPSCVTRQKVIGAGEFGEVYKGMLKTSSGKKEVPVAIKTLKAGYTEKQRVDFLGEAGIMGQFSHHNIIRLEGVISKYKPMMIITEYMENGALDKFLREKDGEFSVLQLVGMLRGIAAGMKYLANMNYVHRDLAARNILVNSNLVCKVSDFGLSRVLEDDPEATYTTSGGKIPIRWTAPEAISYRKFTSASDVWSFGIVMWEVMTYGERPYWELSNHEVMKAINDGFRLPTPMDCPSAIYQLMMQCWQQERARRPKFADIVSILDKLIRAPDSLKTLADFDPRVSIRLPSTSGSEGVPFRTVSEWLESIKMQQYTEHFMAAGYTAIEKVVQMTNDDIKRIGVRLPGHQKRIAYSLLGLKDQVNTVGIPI
Chain of CAMKKb (Q96RR4 whole entry): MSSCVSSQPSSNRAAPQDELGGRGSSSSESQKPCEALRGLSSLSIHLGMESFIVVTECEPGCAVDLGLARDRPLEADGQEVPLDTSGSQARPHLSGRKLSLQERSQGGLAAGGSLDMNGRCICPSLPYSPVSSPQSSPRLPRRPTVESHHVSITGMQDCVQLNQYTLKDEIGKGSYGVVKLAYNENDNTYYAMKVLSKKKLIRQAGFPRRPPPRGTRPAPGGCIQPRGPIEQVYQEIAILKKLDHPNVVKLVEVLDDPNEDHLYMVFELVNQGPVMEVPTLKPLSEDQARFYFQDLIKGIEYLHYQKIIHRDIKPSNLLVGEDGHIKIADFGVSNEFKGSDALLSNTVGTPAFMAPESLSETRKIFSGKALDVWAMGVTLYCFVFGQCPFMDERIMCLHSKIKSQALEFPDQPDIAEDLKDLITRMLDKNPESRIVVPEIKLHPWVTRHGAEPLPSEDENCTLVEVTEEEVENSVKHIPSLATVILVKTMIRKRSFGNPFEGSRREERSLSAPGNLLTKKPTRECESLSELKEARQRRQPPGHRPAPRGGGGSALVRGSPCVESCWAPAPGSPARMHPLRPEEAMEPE
Chain of CK1γ2 (P78368 whole entry): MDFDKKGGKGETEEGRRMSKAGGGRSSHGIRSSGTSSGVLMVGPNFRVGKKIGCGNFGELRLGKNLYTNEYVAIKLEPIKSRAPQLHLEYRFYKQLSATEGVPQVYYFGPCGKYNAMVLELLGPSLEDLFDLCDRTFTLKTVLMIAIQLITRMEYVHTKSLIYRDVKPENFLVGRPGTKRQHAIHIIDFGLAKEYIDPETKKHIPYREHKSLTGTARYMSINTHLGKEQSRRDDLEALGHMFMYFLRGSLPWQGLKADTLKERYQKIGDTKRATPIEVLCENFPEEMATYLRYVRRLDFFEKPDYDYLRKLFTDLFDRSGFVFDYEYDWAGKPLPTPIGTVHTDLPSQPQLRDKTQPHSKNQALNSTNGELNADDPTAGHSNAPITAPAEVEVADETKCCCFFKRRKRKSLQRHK
Chain of MINK1 (Q8N4C8 whole entry): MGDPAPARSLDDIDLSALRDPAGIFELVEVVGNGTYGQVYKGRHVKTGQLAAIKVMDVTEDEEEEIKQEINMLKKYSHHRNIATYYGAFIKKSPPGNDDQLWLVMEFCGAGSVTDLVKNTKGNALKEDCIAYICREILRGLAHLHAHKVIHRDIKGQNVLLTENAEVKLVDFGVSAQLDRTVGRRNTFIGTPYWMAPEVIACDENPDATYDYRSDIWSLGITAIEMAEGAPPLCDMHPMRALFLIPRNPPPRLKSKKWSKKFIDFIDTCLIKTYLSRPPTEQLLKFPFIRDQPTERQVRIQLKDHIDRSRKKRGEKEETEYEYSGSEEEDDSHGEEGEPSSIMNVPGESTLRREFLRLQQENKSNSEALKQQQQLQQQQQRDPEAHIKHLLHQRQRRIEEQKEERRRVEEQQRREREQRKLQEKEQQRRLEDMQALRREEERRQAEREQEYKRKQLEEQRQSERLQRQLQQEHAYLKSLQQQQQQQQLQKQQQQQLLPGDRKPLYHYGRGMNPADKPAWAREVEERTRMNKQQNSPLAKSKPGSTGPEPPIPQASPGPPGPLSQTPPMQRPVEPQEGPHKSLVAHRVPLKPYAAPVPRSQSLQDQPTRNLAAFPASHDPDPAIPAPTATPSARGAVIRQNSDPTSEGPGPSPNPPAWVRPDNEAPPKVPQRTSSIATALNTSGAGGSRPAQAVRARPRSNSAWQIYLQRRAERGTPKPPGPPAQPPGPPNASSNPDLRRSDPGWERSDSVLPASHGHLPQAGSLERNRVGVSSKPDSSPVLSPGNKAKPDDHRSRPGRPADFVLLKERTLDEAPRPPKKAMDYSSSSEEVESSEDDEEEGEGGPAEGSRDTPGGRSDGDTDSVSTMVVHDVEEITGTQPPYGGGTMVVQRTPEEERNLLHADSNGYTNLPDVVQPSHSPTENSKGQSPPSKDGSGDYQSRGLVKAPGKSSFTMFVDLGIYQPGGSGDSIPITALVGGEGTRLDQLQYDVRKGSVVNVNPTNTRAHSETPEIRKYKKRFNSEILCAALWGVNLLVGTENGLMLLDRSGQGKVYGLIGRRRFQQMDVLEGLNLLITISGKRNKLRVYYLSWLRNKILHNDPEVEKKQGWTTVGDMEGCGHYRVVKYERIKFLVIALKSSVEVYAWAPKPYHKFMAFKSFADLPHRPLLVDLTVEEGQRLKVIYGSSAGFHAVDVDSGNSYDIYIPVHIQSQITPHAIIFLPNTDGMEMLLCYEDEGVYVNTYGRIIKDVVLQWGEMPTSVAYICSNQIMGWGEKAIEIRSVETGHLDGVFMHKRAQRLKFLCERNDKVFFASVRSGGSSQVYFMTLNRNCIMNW
Chain of TrkA (P04629 33-796): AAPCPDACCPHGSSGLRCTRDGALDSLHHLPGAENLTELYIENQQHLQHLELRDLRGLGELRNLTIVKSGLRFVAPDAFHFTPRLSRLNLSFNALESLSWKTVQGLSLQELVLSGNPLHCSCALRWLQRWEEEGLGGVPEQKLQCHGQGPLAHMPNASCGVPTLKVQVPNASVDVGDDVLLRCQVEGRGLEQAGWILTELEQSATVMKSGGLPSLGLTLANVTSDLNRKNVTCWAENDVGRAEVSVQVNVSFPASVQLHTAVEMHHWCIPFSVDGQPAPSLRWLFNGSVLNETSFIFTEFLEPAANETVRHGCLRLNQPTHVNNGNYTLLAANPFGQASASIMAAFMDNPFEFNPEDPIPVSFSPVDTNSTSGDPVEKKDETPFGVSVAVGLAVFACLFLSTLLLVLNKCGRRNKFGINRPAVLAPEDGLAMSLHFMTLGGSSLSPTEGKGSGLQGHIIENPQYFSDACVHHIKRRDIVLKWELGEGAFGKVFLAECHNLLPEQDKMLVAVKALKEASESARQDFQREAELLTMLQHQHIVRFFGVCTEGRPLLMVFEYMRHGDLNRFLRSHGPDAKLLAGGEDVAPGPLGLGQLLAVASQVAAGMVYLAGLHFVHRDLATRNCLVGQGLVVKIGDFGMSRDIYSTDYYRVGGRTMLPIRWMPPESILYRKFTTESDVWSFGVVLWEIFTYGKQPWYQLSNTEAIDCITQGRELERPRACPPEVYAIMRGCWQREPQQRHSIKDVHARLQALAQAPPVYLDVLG

Take `COc1ccc2sc(-c3cncc(NC(C)=O)c3)nc2c1` [PST-001, N-(5-(5-Methoxybenzo[d]thiazol-2-yl)pyridin-3-yl)acetamide]: the remaining activity at 1 µM on SGK1 stood at 102%; on EPH-A2, 124%; on TrkA, 111%; at ZAP70, 123%; on CDK9-Cyclin T1 it was 122%; at CAMKKb, 104%. Further, the remaining activity at 1 µM on CHK2 worked out at 105%; at MINK1 it was 104%; at PKCz, 119%. Moreover, the remaining activity at 100 µM on SGK1 is 82%; on EPH-A2, 119%; on TrkA it was 45%; on ZAP70, 131%; at CDK9-Cyclin T1, 120%; on CAMKKb, 54%. Besides, the remaining activity at 100 µM on CHK2 was determined as 85%; at MINK1 it was 88%; at PKCz it was 124%. Also, the “Remaining protein kinase activity” value at CK1γ2 (1 μM) was 114%; at CK1γ2 (100 μM) it was 101%; on JNK3 (1 μM) it was 127%; on JNK3 (100 μM) it was 122%.

For `COc1ccc2sc(-c3cncc(N)c3)nc2c1` [compound 1, 5-(5-Methoxybenzo[d]thiazol-2-yl)pyridin-3-amine], the remaining activity at 1 µM on SGK1 (SGK1, 1 μM) amounted to 99%; at EPH-A2 (EPH-A2, 1 μM), 112%; at TrkA (TrkA, 1 μM) it was 104%; at ZAP70 (ZAP70, 1 μM), 119%; at CDK9-Cyclin T1 (CDK9-Cyclin T1, 1 μM), 113%; at CAMKKb (CAMKKb, 1 μM), 107%. For the same molecule, the remaining activity at 1 µM is 114% at CHK2 (CHK2, 1 μM); 108% at MINK1 (MINK1, 1 μM); 106% on PKCz (PKCz, 1 μM). Further, the remaining activity at 100 µM on SGK1 (SGK1, 100 μM) came to 62%; at EPH-A2 (EPH-A2, 100 μM), 90%; on TrkA (TrkA, 100 μM), 33%; at ZAP70 (ZAP70, 100 μM), 63%; at CDK9-Cyclin T1 (CDK9-Cyclin T1, 100 μM), 83%; at CAMKKb (CAMKKb, 100 μM) it was 37%. The remaining activity at 100 µM on CHK2 (CHK2, 100 μM) was 52%; at MINK1 (MINK1, 100 μM) it was 36%; on PKCz (PKCz, 100 μM), 128%. Besides, the “Remaining protein kinase activity” value turned out to be 108% on CK1γ2 (1 μM), 24% at CK1γ2 (100 μM), 125% at JNK3 (1 μM) and 61% at JNK3 (100 μM).

For the origin of these results see PMC8617627, “Novel DYRK1A Inhibitor Rescues Learning and Memory Deficits in a Mouse Model of Down Syndrome” (Pharmaceuticals, 2021).
